One compound from patent US9573907B2, “2, 4-pyrimidine derivatives and use thereof” (SNU R&DB FOUNDATION, priority 2009, dated 2017) can be followed below.

One test deals with T1, gp96 Y731F (Homo sapiens, UniProt P14625, Y735F).
T1 construct: made in house; host or cells: Escherichia coli BL21 (DE3)
Nature of the test: Surface plasmon resonance, GPM1 binding to gp96 mutant Y731F. On the procedure: (§1) Human gp96 was expressed as His tag fusion protein in Escherichia coli BL21 (DE3) and purified by nickel affinity chromatography. His-tagged human gp96 was immobilized onto CM5 sensor chips using standard amine coupling2. PBS was used as a running buffer. The carboxymethyl dextran surface within one side of the flow cell was activated with a 7-min injection of a 1:1 ratio of 0.4M EDC and 0.1M NHS. The protein was coupled to the surface with a 7-min injection of gp96 diluted in 10 mM sodium acetate, pH 3.7. Remaining activated groups were blocked with a 7-min injection of 1.0M ethanolamine, pH 8.5. GPM1 compound was dissolved directly in the PBS running buffer containing 1% DMSO and injected at a flow rate of 20 μl/min at 25° C. and the binding was determined by the change in resonance units (RU). The compound concentration varied from 10 nM to 25 μM and each concentration was tested at least three times. All of the bound complexes dissociated back to baseline within a reasonable time frame. Therefore, no regeneration was required. Sensorgram was processed by subtracting the binding response recorded from the control surface, followed by subtracting an average of the buffer blank injections from the reaction spot. To determine kinetic rate constants, all data sets were fit to a simple 1:1 binding with drifting baseline model using BIAevaluation program.
(§2) The present inventors compared the dose-dependent effect of GPM1 and NC1 on the interaction of gp96 and AIMP1 using ELISA. […] The present inventors monitored the binding kinetics of GPM1 to gp96 or AIMP1 by surface plasmon resonance (SPR) using BIAcore 3000. […] To further define the GPM1 binding region of gp96 (Han, J. M., Park, S. G., Liu, B., Park, B. J., Kim, J. Y., Jin, C. H., Song, Y. W., Li, Z. & Kim, S. Am. J. Pathol. 170, 2042-2054 (2007)), the present inventors introduced point mutations at L707, V706, V712, L713, F714, Y731 and M738 that are located within AIMP1 binding region of gp96 and monitored how the mutations at these sites would affect the binding of GPM1 to gp96 using SPR method.

A further test has as its target T2, gp96 V712A/L713A/F714Y (Homo sapiens, UniProt P14625, F718Y/L717A/V716A).
T2 construct: made in house; host or cells: Escherichia coli BL21 (DE3)
Nature of the test: Surface plasmon resonance, GPM1 binding to gp96 mutant V712A/L713A/F714Y. On the procedure:
as §1, §2

Test [1] concerns the target T3, interaction of gp96 with AIMP1 (Mus musculus, UniProt P08113).
T3 construct: endogenous in cells; host or cells: RAW24.7 (RAW264.7) cells
Nature of the test: Co-immunoprecipitation of gp96 with AIMP1 in RAW24.7 cells. The class given is cell-based. The note with it: 10 μM, 24 h. On the procedure:
(§3) FIGS. 1 to 9 represent suppression of cell surface gp96 by GPM1 reduces DC maturation and B220^+ population in gp96tm transgenic mice. (FIG. 1) Chemical structure of GPM1 (Formula 2) and negative control (NC1, Formula 16) used in this study. (FIG. 2) The dose-dependent effect of GPM1 or NC1 on the AIMP1-gp96 interaction using ELISA method as described. The indicated concentrations of the two compounds and biotin-conjugated murine gp96 were added to AIMP1 coated on the surface of microtiter wells, and gp96 bound to AIMP1 was detected with strepavidin-conjugated peroxidase. (FIG. 3) The binding of GPM1 to gp96 was examined by surface plasmon resonance (SPR). GPM1 at the indicated concentrations was injected to immobilized gp96 and the binding was measured using Biacore 3000. The response data were processed using data from a reference surface and buffer injections. Each concentration was tested in triplicate. (FIG. 4) RAW24.7 cells were treated with 10 μM GPM1 for 24 h. Cell lysates were immunoprecipitated with control IgG or anti-gp96 antibody and the immunoprecipitated proteins were immunoblotted with anti-KDELR1, antiAIMP1 and gp96 antibodies. WCL means whole cell lysate. […] TNFα secreted from BMDCs was quantified by ELISA. […]

Test [2] has as its system cell surface gp96 of splenocytes isolated from C57BL/6 mice. Nature of the test: Flow cytometry of cell surface gp96 on splenocytes. Type of test: cell-based. The note with it: 10 μM, 24 h. On the procedure: as §3

The structures appear in SMILES notation.

T1 sequence (P14625 22-803 Y735F): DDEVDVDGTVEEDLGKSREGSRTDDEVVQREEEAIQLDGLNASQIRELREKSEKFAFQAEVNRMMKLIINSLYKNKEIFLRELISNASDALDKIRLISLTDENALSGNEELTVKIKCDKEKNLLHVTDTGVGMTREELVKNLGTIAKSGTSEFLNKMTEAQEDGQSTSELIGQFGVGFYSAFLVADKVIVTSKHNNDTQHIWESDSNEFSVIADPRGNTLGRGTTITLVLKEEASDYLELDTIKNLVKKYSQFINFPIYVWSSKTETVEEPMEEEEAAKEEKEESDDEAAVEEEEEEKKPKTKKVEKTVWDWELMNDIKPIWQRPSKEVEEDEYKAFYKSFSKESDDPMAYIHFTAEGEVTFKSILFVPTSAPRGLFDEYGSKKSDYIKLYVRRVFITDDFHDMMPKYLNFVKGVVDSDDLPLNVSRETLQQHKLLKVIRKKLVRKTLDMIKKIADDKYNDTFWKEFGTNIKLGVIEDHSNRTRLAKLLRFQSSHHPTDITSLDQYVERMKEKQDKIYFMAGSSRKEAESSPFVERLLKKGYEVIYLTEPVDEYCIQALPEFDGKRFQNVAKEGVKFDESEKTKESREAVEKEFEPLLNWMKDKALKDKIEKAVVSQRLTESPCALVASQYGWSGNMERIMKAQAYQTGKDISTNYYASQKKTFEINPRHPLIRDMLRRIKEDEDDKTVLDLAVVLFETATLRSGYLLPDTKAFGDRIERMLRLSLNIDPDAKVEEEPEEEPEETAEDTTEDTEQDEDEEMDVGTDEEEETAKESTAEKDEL
T2 sequence (P14625 22-803 V716A/L717A/F718Y): as the sequence (P14625 22-803 Y735F) above, with V695A, L696A, F697Y, F714Y counted along it
T3 sequence (P08113 22-802): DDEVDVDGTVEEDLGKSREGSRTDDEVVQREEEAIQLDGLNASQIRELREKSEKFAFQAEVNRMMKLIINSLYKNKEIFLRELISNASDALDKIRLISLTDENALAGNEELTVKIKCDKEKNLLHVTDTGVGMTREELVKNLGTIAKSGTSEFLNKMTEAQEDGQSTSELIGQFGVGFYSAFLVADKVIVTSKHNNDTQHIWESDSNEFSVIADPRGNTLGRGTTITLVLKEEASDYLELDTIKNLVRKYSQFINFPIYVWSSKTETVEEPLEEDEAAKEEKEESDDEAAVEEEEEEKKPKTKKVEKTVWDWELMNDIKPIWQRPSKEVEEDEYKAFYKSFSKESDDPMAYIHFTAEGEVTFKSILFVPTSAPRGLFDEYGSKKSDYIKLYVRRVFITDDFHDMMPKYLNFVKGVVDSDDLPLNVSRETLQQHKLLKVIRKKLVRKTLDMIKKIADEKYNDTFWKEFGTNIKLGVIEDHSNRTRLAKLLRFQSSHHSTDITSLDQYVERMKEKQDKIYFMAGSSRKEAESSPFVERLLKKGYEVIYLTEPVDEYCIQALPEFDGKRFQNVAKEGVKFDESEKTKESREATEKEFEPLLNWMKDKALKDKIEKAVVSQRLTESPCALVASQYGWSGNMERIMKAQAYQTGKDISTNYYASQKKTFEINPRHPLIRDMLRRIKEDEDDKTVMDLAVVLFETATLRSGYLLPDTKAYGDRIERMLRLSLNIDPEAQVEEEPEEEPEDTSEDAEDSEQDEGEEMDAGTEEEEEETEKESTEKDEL

`COC(=O)[C@@H](Oc1nc(OC)cc(OC)n1)C(C)C` [GPM1, (S)-methyl 2-(4,6-dimethoxypyrimidin-2-yloxy)-3-methylbutanoate]: the Kd at gp96 Y731F amounted to 0.73 µM; on gp96 V712A/L713A/F714Y, 21.9 µM. Besides, the figures for the “koff (dissociation rate constant)” value on gp96 Y731F and at gp96 V712A/L713A/F714Y were 0.0149 s⁻¹ and 0.0142 s⁻¹, respectively. Further, the kon was determined as 20400 M⁻¹ s⁻¹ at gp96 Y731F (read-out: Ka) and 650 M⁻¹ s⁻¹ at gp96 V712A/L713A/F714Y (read-out: Ka). Moreover, the “interaction of gp96 with AIMP1” value in test [1] was “decreased”. Also, the “surface gp96 of mouse splenocytes” value in test [2] is listed as “decreased”.
